Laboratory results reported in PubChem BioAssay (NCI).
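Assay format: 96-well plates, 48-hour exposure. Definition used: TGI = concentration required for complete inhibition of growth.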

How the values were obtained:
Experiment in all cases: NCI-60 cell line screen, 48 h
SK-MEL-5 melanoma = test system: SK-MEL-5 melanoma
RXF 393 renal = test system: RXF 393 renal
OVCAR-8 ovarian = test system: OVCAR-8 ovarian
LOX IMVI melanoma = test system: LOX IMVI melanoma
CAKI-1 renal = test system: CAKI-1 renal
BT-549 breast = test system: BT-549 breast
SK-MEL-28 melanoma = test system: SK-MEL-28 melanoma
K-562 leukemia = test system: K-562 leukemia
SNB-75 CNS = test system: SNB-75 CNS
SW-620 colon = test system: SW-620 colon
MDA-MB-435 = test system: MDA-MB-435
OVCAR-3 ovarian = test system: OVCAR-3 ovarian
MCF7 breast = test system: MCF7 breast
SF-268 CNS = test system: SF-268 CNS
SR leukemia = test system: SR leukemia
UO-31 renal = test system: UO-31 renal
HT29 colon = test system: HT29 colon
OVCAR-4 ovarian = test system: OVCAR-4 ovarian
HCT-116 colon = test system: HCT-116 colon
NCI-H23 lung = test system: NCI-H23 lung
ACHN renal = test system: ACHN renal
SF-539 CNS = test system: SF-539 CNS
EKVX NSCLC = test system: EKVX NSCLC
NCI/ADR-RES ovarian = test system: NCI/ADR-RES ovarian
MDA-MB-231 breast = test system: MDA-MB-231 breast
CCRF-CEM leukemia = test system: CCRF-CEM leukemia
HCC-2998 colon = test system: HCC-2998 colon
SK-OV-3 ovarian = test system: SK-OV-3 ovarian
NCI-H226 lung = test system: NCI-H226 lung
U251 CNS = test system: U251 CNS
HOP-62 NSCLC = test system: HOP-62 NSCLC
NCI-H460 lung = test system: NCI-H460 lung
UACC-62 melanoma = test system: UACC-62 melanoma
NCI-H522 lung = test system: NCI-H522 lung
UACC-257 melanoma = test system: UACC-257 melanoma
TK-10 renal = test system: TK-10 renal
OVCAR-5 ovarian = test system: OVCAR-5 ovarian
PC-3 prostate = test system: PC-3 prostate
KM12 colon = test system: KM12 colon
HS 578T breast = test system: HS 578T breast
SF-295 CNS = test system: SF-295 CNS
M14 melanoma = test system: M14 melanoma
COLO 205 colon = test system: COLO 205 colon
IGROV1 ovarian = test system: IGROV1 ovarian
SNB-19 CNS = test system: SNB-19 CNS
MOLT-4 leukemia = test system: MOLT-4 leukemia
SN12C renal = test system: SN12C renal
A549 NSCLC = test system: A549 NSCLC
786-0 renal = test system: 786-0 renal
HCT-15 colon = test system: HCT-15 colon
SK-MEL-2 melanoma = test system: SK-MEL-2 melanoma
A498 renal = test system: A498 renal
MALME-3M melanoma = test system: MALME-3M melanoma
RPMI-8226 leukemia = test system: RPMI-8226 leukemia
DU-145 prostate = test system: DU-145 prostate
HL-60(TB) leukemia = test system: HL-60(TB) leukemia

CC1(C)N([O-])[N+](=O)C1(C)Br (stereo unspecified)
TGI (SK-MEL-5 melanoma): > 100 µM
TGI (RXF 393 renal): > 100 µM
TGI (OVCAR-8 ovarian): > 100 µM
TGI (LOX IMVI melanoma): > 100 µM
TGI (CAKI-1 renal): > 100 µM
TGI (BT-549 breast): > 100 µM
TGI (SK-MEL-28 melanoma): > 100 µM
TGI (K-562 leukemia): > 100 µM
TGI (SNB-75 CNS): > 100 µM
TGI (SW-620 colon): > 100 µM
TGI (MDA-MB-435): > 100 µM
TGI (OVCAR-3 ovarian): > 100 µM
TGI (MCF7 breast): > 100 µM
TGI (SF-268 CNS): > 100 µM
TGI (SR leukemia): > 100 µM
TGI (UO-31 renal): > 100000 nM
TGI (HT29 colon): > 100 µM
TGI (OVCAR-4 ovarian): > 100 µM
TGI (HCT-116 colon): > 100 µM
TGI (NCI-H23 lung): > 100 µM
TGI (ACHN renal): > 100 µM
TGI (SF-539 CNS): > 100 µM
TGI (EKVX NSCLC): > 100 µM
TGI (NCI/ADR-RES ovarian): > 100 µM
TGI (MDA-MB-231 breast): > 100 µM
TGI (CCRF-CEM leukemia): > 100 µM
TGI (HCC-2998 colon): > 100 µM
TGI (SK-OV-3 ovarian): > 100 µM
TGI (NCI-H226 lung): > 100 µM
TGI (U251 CNS): > 100 µM
TGI (HOP-62 NSCLC): > 100 µM
TGI (NCI-H460 lung): > 100 µM
TGI (UACC-62 melanoma): > 100 µM
TGI (NCI-H522 lung): > 100 µM
TGI (UACC-257 melanoma): > 100 µM
TGI (TK-10 renal): > 100 µM
TGI (OVCAR-5 ovarian): > 100 µM
TGI (PC-3 prostate): > 100 µM
TGI (KM12 colon): > 100 µM
TGI (HS 578T breast): > 100 µM
TGI (SF-295 CNS): > 100 µM
TGI (M14 melanoma): > 100 µM
TGI (COLO 205 colon): > 100 µM
TGI (IGROV1 ovarian): > 100 µM
TGI (SNB-19 CNS): > 100 µM
TGI (MOLT-4 leukemia): > 100 µM
TGI (SN12C renal): > 100 µM
TGI (A549 NSCLC): > 100 µM
TGI (786-0 renal): > 100 µM
TGI (HCT-15 colon): > 100 µM
TGI (SK-MEL-2 melanoma): > 100 µM

CCN(CC)c1ccc2cc(C(=O)Nc3ccccc3OC)c(=N)oc2c1
TGI (SK-MEL-5 melanoma): > 100 µM
TGI (OVCAR-8 ovarian): 23 µM
TGI (LOX IMVI melanoma): 58.2 µM
TGI (CAKI-1 renal): 72.1 µM
TGI (BT-549 breast): 74.5 µM
TGI (SK-MEL-28 melanoma): > 100 µM
TGI (K-562 leukemia): > 100 µM
TGI (SW-620 colon): > 100 µM
TGI (MDA-MB-435): > 100 µM
TGI (OVCAR-3 ovarian): > 100 µM
TGI (MCF7 breast): > 100 µM
TGI (SF-268 CNS): > 100 µM
TGI (SR leukemia): > 100 µM
TGI (A498 renal): > 100 µM
TGI (UO-31 renal): 1580 nM
TGI (HT29 colon): > 100 µM
TGI (OVCAR-4 ovarian): > 100 µM
TGI (MALME-3M melanoma): > 100 µM
TGI (HCT-116 colon): > 100 µM
TGI (RPMI-8226 leukemia): 88.7 µM
TGI (NCI-H23 lung): 89.8 µM
TGI (ACHN renal): > 100 µM
TGI (SF-539 CNS): > 100 µM
TGI (EKVX NSCLC): > 100 µM
TGI (NCI/ADR-RES ovarian): 90.8 µM
TGI (CCRF-CEM leukemia): 20.8 µM
TGI (HCC-2998 colon): > 100 µM
TGI (SK-OV-3 ovarian): > 100 µM
TGI (U251 CNS): > 100 µM
TGI (HOP-62 NSCLC): > 100 µM
TGI (NCI-H460 lung): > 100 µM
TGI (UACC-62 melanoma): > 100 µM
TGI (NCI-H522 lung): 65.6 µM
TGI (UACC-257 melanoma): > 100 µM
TGI (DU-145 prostate): > 100 µM
TGI (OVCAR-5 ovarian): > 100 µM
TGI (PC-3 prostate): 59.6 µM
TGI (KM12 colon): > 100 µM
TGI (HS 578T breast): 98.4 µM
TGI (SF-295 CNS): > 100 µM
TGI (M14 melanoma): > 100 µM
TGI (COLO 205 colon): > 100 µM
TGI (IGROV1 ovarian): 35.3 µM
TGI (SNB-19 CNS): > 100 µM
TGI (MOLT-4 leukemia): 17.2 µM
TGI (A549 NSCLC): > 100 µM
TGI (786-0 renal): > 100 µM
TGI (HL-60(TB) leukemia): 31.6 µM
TGI (HCT-15 colon): 88.3 µM
TGI (SK-MEL-2 melanoma): > 100 µM
